Data set [1] has as its target T1, human progesterone receptor B (Homo sapiens, UniProt P06401).
T1 construct: expressed in transfected cells; host or cells: SK-N-MC human neuroblastoma cells, stably transfected with pRChPR-B-neo and pMMTV-LUC
T1 sequence (P06401 1-933): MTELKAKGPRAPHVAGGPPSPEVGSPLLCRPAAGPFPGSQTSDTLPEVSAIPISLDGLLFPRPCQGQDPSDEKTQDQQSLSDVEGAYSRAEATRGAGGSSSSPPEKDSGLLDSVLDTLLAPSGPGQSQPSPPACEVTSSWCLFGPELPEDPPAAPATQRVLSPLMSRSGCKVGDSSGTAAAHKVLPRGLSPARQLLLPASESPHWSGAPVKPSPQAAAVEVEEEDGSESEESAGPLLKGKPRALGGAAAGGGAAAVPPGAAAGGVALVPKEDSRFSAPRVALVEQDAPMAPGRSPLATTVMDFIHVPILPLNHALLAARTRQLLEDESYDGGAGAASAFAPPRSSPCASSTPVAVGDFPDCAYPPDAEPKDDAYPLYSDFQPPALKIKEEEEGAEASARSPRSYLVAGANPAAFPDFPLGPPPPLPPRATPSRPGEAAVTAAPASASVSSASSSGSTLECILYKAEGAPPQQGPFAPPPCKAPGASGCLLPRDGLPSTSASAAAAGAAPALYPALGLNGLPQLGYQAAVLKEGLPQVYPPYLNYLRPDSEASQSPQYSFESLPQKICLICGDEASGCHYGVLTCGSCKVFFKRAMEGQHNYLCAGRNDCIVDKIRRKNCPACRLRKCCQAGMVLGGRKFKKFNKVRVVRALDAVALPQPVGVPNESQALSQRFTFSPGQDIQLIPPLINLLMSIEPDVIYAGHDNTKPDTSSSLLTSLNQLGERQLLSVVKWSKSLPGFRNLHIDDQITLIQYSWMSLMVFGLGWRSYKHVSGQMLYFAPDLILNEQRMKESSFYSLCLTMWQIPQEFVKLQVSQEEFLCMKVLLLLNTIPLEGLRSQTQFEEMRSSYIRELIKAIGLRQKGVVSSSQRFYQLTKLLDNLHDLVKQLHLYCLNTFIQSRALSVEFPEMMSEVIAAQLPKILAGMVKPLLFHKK
In words: Progesterone receptor antagonistic effect in stably transfected SK-N-MC cells, MTV-LUC reporter (PR-B). The conditions noted are these: antagonism of 0.1 nmol/l promegestone, luciferase reporter, 24 hours. It is filed as cell-based. How it is done:
Progesterone Receptor Antagonistic Effect in Stable Transfectants of Human Neuroblastoma Cells (SK-N-MC cells) with the Human Progesterone A or Progesterone B Receptor and a MTV-LUC Reporter Construct
SK-N-MC cells (human neuroblastoma cells), which have been stably transfected with plasmids which express the human progesterone receptor B (pRChPR-B-neo) or the human progesterone receptor A (pRChPR-A-neo) and a reporter construct (pMMTV-LUC), were incubated for 24 hours either in the absence (negative control) or in the presence of increasing amounts of the particular test compound (0.01 nmol/l, 0.1 nmol/l, 1 nmol/l, 10 nmol/l, 100 nmol/l and 1 μmol/l) in order to determine the agonistic efficacy. As a positive control of the reporter gene induction, the cells were treated with the synthetic gestagen promegestone (0.01 nmol/l, 0.1 nmol/l, 1 nmol/l, 10 nmol/l, 100 nmol/l and 1 μmol/l). To determine the antagonistic activity, the cells were treated with 0.1 nmol/l of promegestone and additionally with increasing amounts of the particular test compound (0.01 nmol/l, 0.1 nmol/l, 1 nmol/l, 10 nmol/l, 100 nmol/l and 1 μmol/l). The activity of the reporter gene LUC (LUC=luciferase) was determined in the cell lysates and measured as RLU (relative light units). All measurement values are given as percentage efficacy and as EC50 or IC50 concentrations.
A general note: In a reporter assay the amount or activity of a reporter protein is the signal.

For data set [2], the target named is T2, human progesterone receptor A (Homo sapiens, UniProt P06401).
T2 construct: expressed in transfected cells; host or cells: SK-N-MC human neuroblastoma cells, stably transfected with pRChPR-A-neo and pMMTV-LUC
T2 sequence (P06401 1-769 isoform P06401-2): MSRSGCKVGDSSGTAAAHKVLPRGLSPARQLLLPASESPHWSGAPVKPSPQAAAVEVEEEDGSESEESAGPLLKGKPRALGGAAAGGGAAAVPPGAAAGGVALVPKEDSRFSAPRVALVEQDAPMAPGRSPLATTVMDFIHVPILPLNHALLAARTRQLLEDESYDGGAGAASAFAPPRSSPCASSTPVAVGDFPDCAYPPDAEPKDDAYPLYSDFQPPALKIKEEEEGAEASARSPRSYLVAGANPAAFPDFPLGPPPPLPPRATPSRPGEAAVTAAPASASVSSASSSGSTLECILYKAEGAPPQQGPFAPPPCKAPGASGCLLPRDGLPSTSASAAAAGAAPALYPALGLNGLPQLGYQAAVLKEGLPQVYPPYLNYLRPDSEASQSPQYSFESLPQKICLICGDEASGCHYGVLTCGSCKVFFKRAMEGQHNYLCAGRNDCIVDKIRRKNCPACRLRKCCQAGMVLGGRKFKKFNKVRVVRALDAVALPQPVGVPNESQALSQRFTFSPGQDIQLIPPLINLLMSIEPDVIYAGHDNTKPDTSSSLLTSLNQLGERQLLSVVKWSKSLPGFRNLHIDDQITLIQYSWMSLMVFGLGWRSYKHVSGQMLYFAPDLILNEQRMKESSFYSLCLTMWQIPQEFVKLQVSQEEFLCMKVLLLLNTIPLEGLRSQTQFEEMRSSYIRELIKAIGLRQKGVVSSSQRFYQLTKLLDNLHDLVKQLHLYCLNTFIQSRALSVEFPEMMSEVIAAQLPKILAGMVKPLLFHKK
Briefly: Progesterone receptor antagonistic effect in stably transfected SK-N-MC cells, MTV-LUC reporter (PR-A). It is filed as cell-based. The following applies: antagonism of 0.1 nmol/l promegestone, luciferase reporter, 24 hours. A digest of the protocol: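 Stably transfected SK-N-MC cells with PR-A or PR-B and MMTV-LUC reporter, treated 24 h with 0.1 nmol/l promegestone plus test compound at 0.01 nmol/l–1 μmol/l. Luciferase in cell lysates read as RLU; values given as percentage efficacy and IC50.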

The subject of the next data set is pregnant rats. In words: Abortive test on female rats (termination of early pregnancy). Format: in vivo, rat. The following applies: for Abortion rate: d5-d7 p.c., autopsy d9 p.c.; for In vivo properties in preclinical tests: not further specified. How it is done:
The antagonistic effect of the compounds according to the invention was tested on pregnant rats (6 rats per group) on day (d) 5 to 7 post coitum (p.c.) under conventional keeping and feeding conditions.
After successful pairing, the pregnant animals (presence of sperm in the vaginal smear on day 1 of the pregnancy=d1 p.c.) were randomized and divided into the treatment group and the control group. The animals were then given, subcutaneously or orally, in each case 0.15; 0.5; 1.5 or 5 mg/kg of the test compound or […] of vehicle (benzyl benzoate/ricinus oil: 1+4 [v/v]) daily from day 5 to day 7 (d5-d7 p.c.).
The autopsy was carried out on day 9 (d9 p.c.). As the parameter of the progesterone receptor antagonistic effect, the uterus was investigated with regard to the presence of nidation sites. Here, the complete lack of nidation sites, but also the presence of pathological, haemmorhagic or otherwise abnormal nidation sites, on day 9 (d9 p.c.) was evaluated as an abortion.

The conditions of data set [3]: cited from earlier work.
In the next data set the test system is uterus fibroids. The following applies: several clinical studies; cited from earlier work.

Molecules are shown by their SMILES.

A word on the IC50: it is the concentration needed to halve the response being measured.

Consider `CC(=O)N1CCN(Cc2ccc([C@H]3C[C@@]4(C)C(CC[C@@]4(O)C(F)(F)C(F)(F)F)C4CCC5=CC(=O)CCC5=C43)cc2)CC1` (stereo partly drawn) [Example 11, (11β,17β)-11-{4-[(4-Acetylpiperazin-1-yl)methyl]phenyl}-17-hydroxy-17-(pentafluoroethyl)estra-4,9-dien-3-one], for which the half-maximal inhibitory concentration (IC50) in data set [1] and in data set [2] was 0.095 nM in each case. For the same molecule, the Abortion rate in the data set on pregnant rats (daily dose 0.5 mg/kg p.o.), in the data set with pregnant rats (daily dose 1.5 mg/kg p.o.) and in the data set with pregnant rats (daily dose 5.0 mg/kg p.o.) was 100% each time. For the same molecule, the “In vivo properties in preclinical tests” value in the data set on pregnant rats was “exceptional in vivo properties”.
For `C[C@]12C[C@H](c3ccc(CN4CCN(S(C)(=O)=O)CC4)cc3)C3=C4CCC(=O)C=C4CC[C@H]3[C@@H]1CC[C@@]2(O)C(F)(F)C(F)(F)F` [Example 12, (11β,17β)-17-Hydroxy-11-(4-{[4-(methylsulphonyl)piperazin-1-yl]methyl}phenyl)-17-(pentafluoroethyl)estra-4,9-dien-3-one], the IC50 was determined as 0.1 nM in data set [1] and 0.17 nM in data set [2]. The Abortion rate in the data set on pregnant rats (daily dose 0.5 mg/kg p.o.), in the data set with pregnant rats (daily dose 1.5 mg/kg p.o.) and in the data set with pregnant rats (daily dose 5.0 mg/kg p.o.) was 100% each time. Also, the “In vivo properties in preclinical tests” value with pregnant rats is “exceptional in vivo properties”.
In the case of `CN(C)c1ccc([C@H]2C[C@]3(C)[C@@H](CC[C@]3(O)CCCO)[C@@H]3CCC4=CC(=O)CCC4=C32)cc1` [Onapristone, onapristone], in data set [3] (clinical studies, some patients), the Liver function tests entry is “abnormalities in liver function tests were observed”.
On to `CC#C[C@]1(O)CC[C@H]2[C@@H]3CCC4=CC(=O)CCC4=C3[C@@H](c3ccc(N(C)C)cc3)C[C@@]21C` [mifepristone], for which, in the data set with uterus fibroids, the “Effect on uterus fibroids” value is on record as “significant shrinkage of uterus fibroids” and the “Symptoms associated with uterus fibroids” value is on record as “significant reduction in the symptoms”.
`COCC(=O)[C@@]1(OC(C)=O)CC[C@H]2[C@@H]3CCC4=CC(=O)CCC4=C3[C@@H](c3ccc(N(C)C)cc3)C[C@@]21C` [proellex]: in the data set on uterus fibroids, the “Effect on uterus fibroids” value is on record as “significant shrinkage of uterus fibroids” and the “Symptoms associated with uterus fibroids” value is “significant reduction in the symptoms”. Besides, the Liver enzymes result in data set [3] (relatively high dosages) is recorded as “induction of liver enzymes”.

Values taken from patent publication US9085603B2, “Progesterone receptor antagonists” (Bayer Intellectual Property GmbH, priority 2010, dated 2015).
